Measurements taken from PubChem BioAssay (NCI).
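Compound exposure: 48 hours, 5 concentrations, 96-well plates. Abbreviation: GI50, concentration required for 50% inhibition of growth. TGI: total growth inhibition.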

How the values were obtained:
Assay in all cases: inhibition of tumour cell growth, NCI panel, 48 h
HCT-116 colon = system: HCT-116 colon
786-0 renal = system: 786-0 renal
A549 NSCLC = system: A549 NSCLC
HOP-92 NSCLC = system: HOP-92 NSCLC
HT29 colon = system: HT29 colon
OVCAR-5 ovarian = system: OVCAR-5 ovarian
SK-MEL-5 melanoma = system: SK-MEL-5 melanoma
LOX IMVI melanoma = system: LOX IMVI melanoma
OVCAR-8 ovarian = system: OVCAR-8 ovarian
PC-3 prostate = system: PC-3 prostate
UACC-257 melanoma = system: UACC-257 melanoma
MCF7 breast = system: MCF7 breast
RXF 393 renal = system: RXF 393 renal
SNB-75 CNS = system: SNB-75 CNS
HS 578T breast = system: HS 578T breast
K-562 leukemia = system: K-562 leukemia
SNB-19 CNS = system: SNB-19 CNS
UACC-62 melanoma = system: UACC-62 melanoma
ACHN renal = system: ACHN renal
U251 CNS = system: U251 CNS
SF-539 CNS = system: SF-539 CNS
TK-10 renal = system: TK-10 renal
UO-31 renal = system: UO-31 renal
HOP-62 NSCLC = system: HOP-62 NSCLC
M14 melanoma = system: M14 melanoma
SK-MEL-2 melanoma = system: SK-MEL-2 melanoma
HCC-2998 colon = system: HCC-2998 colon
A498 renal = system: A498 renal
NCI-H23 lung = system: NCI-H23 lung
NCI-H226 lung = system: NCI-H226 lung
T-47D breast = system: T-47D breast
SF-268 CNS = system: SF-268 CNS
CCRF-CEM leukemia = system: CCRF-CEM leukemia
IGROV1 ovarian = system: IGROV1 ovarian
KM12 colon = system: KM12 colon
MDA-MB-435 = system: MDA-MB-435
COLO 205 colon = system: COLO 205 colon
DU-145 prostate = system: DU-145 prostate
SK-OV-3 ovarian = system: SK-OV-3 ovarian
MDA-MB-231 breast = system: MDA-MB-231 breast
SK-MEL-28 melanoma = system: SK-MEL-28 melanoma
SN12C renal = system: SN12C renal
SW-620 colon = system: SW-620 colon
OVCAR-4 ovarian = system: OVCAR-4 ovarian
SR leukemia = system: SR leukemia
BT-549 breast = system: BT-549 breast
NCI-H522 lung = system: NCI-H522 lung
NCI/ADR-RES ovarian = system: NCI/ADR-RES ovarian
MOLT-4 leukemia = system: MOLT-4 leukemia
CAKI-1 renal = system: CAKI-1 renal
SF-295 CNS = system: SF-295 CNS
MALME-3M melanoma = system: MALME-3M melanoma
RPMI-8226 leukemia = system: RPMI-8226 leukemia
HL-60(TB) leukemia = system: HL-60(TB) leukemia
EKVX NSCLC = system: EKVX NSCLC
NCI-H460 lung = system: NCI-H460 lung
HCT-15 colon = system: HCT-15 colon

O=C(NNc1nc2cc(F)ccc2n2c(CN3CCC(O)C3)ccc12)c1cnccn1 (stereo not drawn)
GI50 (HCT-116 colon): 87.6 nM
TGI (HCT-116 colon): > 35100 nM
GI50 (786-0 renal): 308 nM
TGI (786-0 renal): > 22800 nM
GI50 (A549 NSCLC): 555 nM
TGI (A549 NSCLC): > 100000 nM
GI50 (HOP-92 NSCLC): 590 nM
TGI (HOP-92 NSCLC): > 100000 nM
GI50 (HT29 colon): 512 nM
TGI (HT29 colon): > 100000 nM
GI50 (OVCAR-5 ovarian): 1830 nM
TGI (OVCAR-5 ovarian): > 100000 nM
GI50 (SK-MEL-5 melanoma): 1000 nM
TGI (SK-MEL-5 melanoma): 8290 nM
GI50 (LOX IMVI melanoma): 417 nM
TGI (LOX IMVI melanoma): 6160 nM
GI50 (OVCAR-8 ovarian): 439 nM
TGI (OVCAR-8 ovarian): > 44500 nM
GI50 (PC-3 prostate): 790 nM
TGI (PC-3 prostate): > 100000 nM
GI50 (UACC-257 melanoma): 1710 nM
TGI (UACC-257 melanoma): 7530 nM
GI50 (MCF7 breast): 725 nM
TGI (MCF7 breast): > 100000 nM
GI50 (RXF 393 renal): 946 nM
TGI (RXF 393 renal): > 40500 nM
GI50 (SNB-75 CNS): 1960 nM
TGI (SNB-75 CNS): > 30400 nM
GI50 (HS 578T breast): 8660 nM
TGI (HS 578T breast): > 100000 nM
GI50 (K-562 leukemia): 564 nM
TGI (K-562 leukemia): > 100000 nM
GI50 (SNB-19 CNS): 1000 nM
TGI (SNB-19 CNS): > 100000 nM
GI50 (UACC-62 melanoma): 408 nM
TGI (UACC-62 melanoma): 84400 nM
GI50 (ACHN renal): 217 nM
TGI (ACHN renal): 36200 nM
GI50 (U251 CNS): 470 nM
TGI (U251 CNS): > 100000 nM
GI50 (SF-539 CNS): 763 nM
TGI (SF-539 CNS): > 100000 nM
GI50 (TK-10 renal): 921 nM
TGI (TK-10 renal): > 100000 nM
GI50 (UO-31 renal): 97.2 nM
TGI (UO-31 renal): 10100 nM
GI50 (HOP-62 NSCLC): 429 nM
TGI (HOP-62 NSCLC): > 30600 nM
TGI (M14 melanoma): 1080 nM
GI50 (SK-MEL-2 melanoma): 4090 nM
TGI (SK-MEL-2 melanoma): > 100000 nM
GI50 (HCC-2998 colon): 738 nM
TGI (HCC-2998 colon): > 100000 nM
GI50 (A498 renal): 2040 nM
TGI (A498 renal): 8910 nM
GI50 (NCI-H23 lung): 1100 nM
TGI (NCI-H23 lung): > 100000 nM
GI50 (NCI-H226 lung): 920 nM
TGI (NCI-H226 lung): > 63400 nM
GI50 (T-47D breast): 1190 nM
TGI (T-47D breast): > 100000 nM
GI50 (SF-268 CNS): 744 nM
TGI (SF-268 CNS): > 100000 nM
GI50 (CCRF-CEM leukemia): 347 nM
TGI (CCRF-CEM leukemia): > 100000 nM
GI50 (IGROV1 ovarian): 679 nM
TGI (IGROV1 ovarian): > 100000 nM
GI50 (KM12 colon): 573 nM
TGI (KM12 colon): > 100000 nM
GI50 (MDA-MB-435): 1580 nM
TGI (MDA-MB-435): > 100000 nM
GI50 (COLO 205 colon): 406 nM
TGI (COLO 205 colon): > 100000 nM
GI50 (DU-145 prostate): 981 nM
TGI (DU-145 prostate): > 100000 nM
GI50 (SK-OV-3 ovarian): 858 nM
TGI (SK-OV-3 ovarian): > 28900 nM
GI50 (MDA-MB-231 breast): 941 nM
TGI (MDA-MB-231 breast): > 100000 nM
GI50 (SK-MEL-28 melanoma): 795 nM
TGI (SK-MEL-28 melanoma): > 100000 nM
GI50 (SN12C renal): 953 nM
TGI (SN12C renal): > 100000 nM
GI50 (SW-620 colon): 973 nM
TGI (SW-620 colon): > 100000 nM
GI50 (OVCAR-4 ovarian): 676 nM
TGI (OVCAR-4 ovarian): > 100000 nM
GI50 (SR leukemia): 389 nM
TGI (SR leukemia): > 21800 nM
GI50 (BT-549 breast): 327 nM
TGI (BT-549 breast): 9350 nM
GI50 (NCI-H522 lung): 1130 nM
TGI (NCI-H522 lung): 14700 nM
GI50 (NCI/ADR-RES ovarian): 330 nM
TGI (NCI/ADR-RES ovarian): > 35500 nM
GI50 (MOLT-4 leukemia): 489 nM
TGI (MOLT-4 leukemia): > 51300 nM
GI50 (CAKI-1 renal): 515 nM
TGI (CAKI-1 renal): > 100000 nM
GI50 (SF-295 CNS): 421 nM
TGI (SF-295 CNS): > 100000 nM
GI50 (MALME-3M melanoma): 1570 nM
TGI (MALME-3M melanoma): > 100000 nM
GI50 (RPMI-8226 leukemia): 747 nM
TGI (RPMI-8226 leukemia): > 100000 nM
GI50 (HL-60(TB) leukemia): 622 nM
TGI (HL-60(TB) leukemia): 6360 nM
GI50 (EKVX NSCLC): 449 nM
TGI (EKVX NSCLC): > 100000 nM
GI50 (NCI-H460 lung): 315 nM
TGI (NCI-H460 lung): > 31600 nM
GI50 (HCT-15 colon): 148 nM
TGI (HCT-15 colon): > 100000 nM
